From US4471131A, “Novel silyl esters of N-phosphonomethylglycine” (Monsanto Company, priority 1983, dated 1984)

What was measured:
Test in all cases: post-emergence herbicidal activity, greenhouse
Type in all cases: in vivo
Common Lambsquarters = test system: Common Lambsquarters
In short: (§1)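 Using pans of compacted topsoil, seeds were pressed in, covered, and grown on a greenhouse sand bench with subirrigation. Once two to three weeks old, plants were sprayed individually in a chamber; pans then returned to the greenhouse, and injury versus controls was noted around 2 and 4 WAT.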

Hemp Sesbania = conditions: Table III
In short: as §1

Johnsongrass = conditions: Table II
In short: as §1

Large Crabgrass = conditions: Table III
In short: as §1

Panicum Spp = conditions: Table III
In short: as §1

Quackgrass = conditions: Table II
In short: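 Injury versus control pans was recorded at about 2 and 4 weeks post-treatment. Treatment was post-emergence: an atomizer spray holding roughly 0.4% by weight emulsifier and enough candidate chemical for the tabulated rates, applied to two-to-three-week-old plants raised in top-soil pans.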

Rice = conditions: Table III
In short: as §1

Soybean = conditions: Table III
In short: as §1

Sugar Beet = conditions: Table III
In short: as §1

Velvetleaf = test system: Velvetleaf
In short: as §1

Wild Buckwheat = conditions: Table III
In short: as §1

[1] = Table II, 2 WAT, 5.6 kg/h, formulated in anhydrous tetrahydrofuran
[2] = Table II, 2 WAT, 11.2 kg/h, formulated in anhydrous tetrahydrofuran
[3] = Table II, 4 WAT, 5.6 kg/h, formulated in anhydrous tetrahydrofuran
[4] = Table II, 4 WAT, 11.2 kg/h, formulated in anhydrous tetrahydrofuran
[5] = Table III, 2 WAT, 1.1 kg/h, formulated in anhydrous tetrahydrofuran
[6] = Table III, 2 WAT, 5.6 kg/h, formulated in anhydrous tetrahydrofuran
[7] = Table III, 2 WAT, .28 kg/h, formulated in anhydrous tetrahydrofuran
[8] = Table III, 4 WAT, 1.1 kg/h, formulated in anhydrous tetrahydrofuran
[9] = Table III, 4 WAT, 5.6 kg/h, formulated in anhydrous tetrahydrofuran
[10] = Table III, 4 WAT, .28 kg/h, formulated in anhydrous tetrahydrofuran
[11] = 2 WAT, 1.1 kg/h, formulated in anhydrous tetrahydrofuran
[12] = 2 WAT, 5.6 kg/h, formulated in anhydrous tetrahydrofuran
[13] = 2 WAT, .28 kg/h, formulated in anhydrous tetrahydrofuran
[14] = 4 WAT, 1.1 kg/h, formulated in anhydrous tetrahydrofuran
[15] = 4 WAT, 5.6 kg/h, formulated in anhydrous tetrahydrofuran
[16] = 4 WAT, .28 kg/h, formulated in anhydrous tetrahydrofuran
[17] = 2 WAT, 11.2 kg/h, formulated in anhydrous tetrahydrofuran
[18] = 4 WAT, 11.2 kg/h, formulated in anhydrous tetrahydrofuran

## CCCCOC(=O)CNCP(=O)(O)O[Si](c1ccccc1)(c1ccccc1)C(C)(C)C [Ex. 6, Glycine, N--((([(1,1-Dimethylethyl)Diphenylsilyl]Oxy)Hydroxyphosphinyl)methyl)-Butyl Ester]
Common Lambsquarters; Table II, 2 WAT, 5.6 kg/h
  Plant Response Index (E): 2 (50-74% inhibition)
Common Lambsquarters; [1]
  Plant Response Index (E): 1 (25-49% inhibition)
Common Lambsquarters; Table II, 2 WAT, 11.2 kg/h
  Plant Response Index (E): 3 (75-99% inhibition)
Common Lambsquarters; [2]
  Plant Response Index (E): 3 (75-99% inhibition)
Common Lambsquarters; Table II, 4 WAT, 5.6 kg/h
  Plant Response Index (E): 2 (50-74% inhibition)
Common Lambsquarters; [3]
  Plant Response Index (E): 3 (75-99% inhibition)
Common Lambsquarters; Table II, 4 WAT, 11.2 kg/h
  Plant Response Index (E): 4 (100% inhibition)
Common Lambsquarters; [4]
  Plant Response Index (E): 4 (100% inhibition)
Common Lambsquarters; Table III, 2 WAT, 1.1 kg/h
  Plant Response Index (E): 3 (75-99% inhibition)
Common Lambsquarters; [5]
  Plant Response Index (E): 3 (75-99% inhibition)
Common Lambsquarters; Table III, 2 WAT, 5.6 kg/h
  Plant Response Index (E): 3 (75-99% inhibition)
Common Lambsquarters; [6]
  Plant Response Index (E): 3 (75-99% inhibition)
Common Lambsquarters; Table III, 2 WAT, .28 kg/h
  Plant Response Index (E): 3 (75-99% inhibition)
Common Lambsquarters; [7]
  Plant Response Index (E): 1 (25-49% inhibition)
Common Lambsquarters; Table III, 4 WAT, 1.1 kg/h
  Plant Response Index (E): 3 (75-99% inhibition)
Common Lambsquarters; [8]
  Plant Response Index (E): 4 (100% inhibition)
Common Lambsquarters; Table III, 4 WAT, 5.6 kg/h
  Plant Response Index (E): 3 (75-99% inhibition)
Common Lambsquarters; [9]
  Plant Response Index (E): 4 (100% inhibition)
Common Lambsquarters; [10]
  Plant Response Index (E): 1 (25-49% inhibition)
Hemp Sesbania; 2 WAT, 1.1 kg/h
  Plant Response Index (R): 1 (25-49% inhibition)
Hemp Sesbania; [11]
  Plant Response Index (R): 1 (25-49% inhibition)
Hemp Sesbania; 2 WAT, 5.6 kg/h
  Plant Response Index (R): 2 (50-74% inhibition)
Hemp Sesbania; [12]
  Plant Response Index (R): 4 (100% inhibition)
Hemp Sesbania; [13]
  Plant Response Index (R): 0 (0-24% inhibition)
Hemp Sesbania; 4 WAT, 1.1 kg/h
  Plant Response Index (R): 1 (25-49% inhibition)
Hemp Sesbania; [14]
  Plant Response Index (R): 0 (0-24% inhibition)
Hemp Sesbania; 4 WAT, 5.6 kg/h
  Plant Response Index (R): 2 (50-74% inhibition)
Hemp Sesbania; [15]
  Plant Response Index (R): 4 (100% inhibition)
Hemp Sesbania; [16]
  Plant Response Index (R): 0 (0-24% inhibition)
Johnsongrass; 2 WAT, 5.6 kg/h
  Plant Response Index (I): 0 (0-24% inhibition)
Johnsongrass; [12]
  Plant Response Index (I): 0 (0-24% inhibition)
Johnsongrass; 2 WAT, 11.2 kg/h
  Plant Response Index (I): 1 (25-49% inhibition)
Johnsongrass; [17]
  Plant Response Index (I): 0 (0-24% inhibition)
Johnsongrass; 4 WAT, 5.6 kg/h
  Plant Response Index (I): 2 (50-74% inhibition)
Johnsongrass; [15]
  Plant Response Index (I): 1 (25-49% inhibition)
Johnsongrass; 4 WAT, 11.2 kg/h
  Plant Response Index (I): 0 (0-24% inhibition)
Johnsongrass; [18]
  Plant Response Index (I): 1 (25-49% inhibition)
Large Crabgrass; 2 WAT, 1.1 kg/h
  Plant Response Index (T): 4 (100% inhibition)
Large Crabgrass; [11]
  Plant Response Index (T): 4 (100% inhibition)
Large Crabgrass; 2 WAT, 5.6 kg/h
  Plant Response Index (T): 4 (100% inhibition)
Large Crabgrass; [12]
  Plant Response Index (T): 4 (100% inhibition)
Large Crabgrass; 2 WAT, .28 kg/h
  Plant Response Index (T): 4 (100% inhibition)
Large Crabgrass; [13]
  Plant Response Index (T): 1 (25-49% inhibition)
Large Crabgrass; 4 WAT, 1.1 kg/h
  Plant Response Index (T): 4 (100% inhibition)
Large Crabgrass; [14]
  Plant Response Index (T): 4 (100% inhibition)
Large Crabgrass; 4 WAT, 5.6 kg/h
  Plant Response Index (T): 4 (100% inhibition)
Large Crabgrass; [15]
  Plant Response Index (T): 4 (100% inhibition)
Large Crabgrass; [16]
  Plant Response Index (T): 0 (0-24% inhibition)
Panicum Spp; 2 WAT, 1.1 kg/h
  Plant Response Index (S): 3 (75-99% inhibition)
Panicum Spp; [11]
  Plant Response Index (S): 2 (50-74% inhibition)
Panicum Spp; 2 WAT, 5.6 kg/h
  Plant Response Index (S): 4 (100% inhibition)
Panicum Spp; [12]
  Plant Response Index (S): 2 (50-74% inhibition)
Panicum Spp; 2 WAT, .28 kg/h
  Plant Response Index (S): 2 (50-74% inhibition)
Panicum Spp; [13]
  Plant Response Index (S): 0 (0-24% inhibition)
Panicum Spp; 4 WAT, 1.1 kg/h
  Plant Response Index (S): 3 (75-99% inhibition)
Panicum Spp; [14]
  Plant Response Index (S): 2 (50-74% inhibition)
Panicum Spp; 4 WAT, 5.6 kg/h
  Plant Response Index (S): 4 (100% inhibition)
Panicum Spp; [15]
  Plant Response Index (S): 3 (75-99% inhibition)
Panicum Spp; [16]
  Plant Response Index (S): 0 (0-24% inhibition)
Quackgrass; 2 WAT, 5.6 kg/h
  Plant Response Index (H): 0 (0-24% inhibition)
Quackgrass; [12]
  Plant Response Index (H): 0 (0-24% inhibition)
Quackgrass; 2 WAT, 11.2 kg/h
  Plant Response Index (H): 1 (25-49% inhibition)
Quackgrass; [17]
  Plant Response Index (H): 0 (0-24% inhibition)
Quackgrass; 4 WAT, 5.6 kg/h
  Plant Response Index (H): 0 (0-24% inhibition)
Quackgrass; [15]
  Plant Response Index (H): 1 (25-49% inhibition)
Quackgrass; 4 WAT, 11.2 kg/h
  Plant Response Index (H): 4 (100% inhibition)
Quackgrass; [18]
  Plant Response Index (H): 0 (0-24% inhibition)
Rice; 2 WAT, 1.1 kg/h
  Plant Response Index (O): 1 (25-49% inhibition)
Rice; [11]
  Plant Response Index (O): 0 (0-24% inhibition)
Rice; 2 WAT, 5.6 kg/h
  Plant Response Index (O): 2 (50-74% inhibition)
Rice; [12]
  Plant Response Index (O): 1 (25-49% inhibition)
Rice; 2 WAT, .28 kg/h
  Plant Response Index (O): 0 (0-24% inhibition)
Rice; [13]
  Plant Response Index (O): 0 (0-24% inhibition)
Rice; 4 WAT, 1.1 kg/h
  Plant Response Index (O): 1 (25-49% inhibition)
Rice; [14]
  Plant Response Index (O): 0 (0-24% inhibition)
Rice; 4 WAT, 5.6 kg/h
  Plant Response Index (O): 3 (75-99% inhibition)
Rice; [15]
  Plant Response Index (O): 2 (50-74% inhibition)
Rice; [16]
  Plant Response Index (O): 0 (0-24% inhibition)
Soybean; 2 WAT, 1.1 kg/h
  Plant Response Index (L): 1 (25-49% inhibition)
Soybean; [11]
  Plant Response Index (L): 1 (25-49% inhibition)
Soybean; 2 WAT, 5.6 kg/h
  Plant Response Index (L): 1 (25-49% inhibition)
Soybean; [12]
  Plant Response Index (L): 2 (50-74% inhibition)
Soybean; 2 WAT, .28 kg/h
  Plant Response Index (L): 0 (0-24% inhibition)
Soybean; [13]
  Plant Response Index (L): 1 (25-49% inhibition)
Soybean; 4 WAT, 1.1 kg/h
  Plant Response Index (L): 1 (25-49% inhibition)
Soybean; [14]
  Plant Response Index (L): 1 (25-49% inhibition)
Soybean; 4 WAT, 5.6 kg/h
  Plant Response Index (L): 1 (25-49% inhibition)
Soybean; [15]
  Plant Response Index (L): 2 (50-74% inhibition)
Soybean; [16]
  Plant Response Index (L): 1 (25-49% inhibition)
Sugar Beet; 2 WAT, 1.1 kg/h
  Plant Response Index (M): 1 (25-49% inhibition)
Sugar Beet; [11]
  Plant Response Index (M): 1 (25-49% inhibition)
Sugar Beet; 2 WAT, 5.6 kg/h
  Plant Response Index (M): 2 (50-74% inhibition)
Sugar Beet; [12]
  Plant Response Index (M): 1 (25-49% inhibition)
Sugar Beet; 2 WAT, .28 kg/h
  Plant Response Index (M): 0 (0-24% inhibition)
Sugar Beet; [13]
  Plant Response Index (M): 0 (0-24% inhibition)
Sugar Beet; 4 WAT, 1.1 kg/h
  Plant Response Index (M): 1 (25-49% inhibition)
Sugar Beet; [14]
  Plant Response Index (M): 1 (25-49% inhibition)
Sugar Beet; 4 WAT, 5.6 kg/h
  Plant Response Index (M): 3 (75-99% inhibition)
Sugar Beet; [15]
  Plant Response Index (M): 1 (25-49% inhibition)
Sugar Beet; [16]
  Plant Response Index (M): 0 (0-24% inhibition)
Velvetleaf; Table II, 2 WAT, 5.6 kg/h
  Plant Response Index (C): 0 (0-24% inhibition)
Velvetleaf; [1]
  Plant Response Index (C): 0 (0-24% inhibition)
Velvetleaf; Table II, 2 WAT, 11.2 kg/h
  Plant Response Index (C): 2 (50-74% inhibition)
Velvetleaf; [2]
  Plant Response Index (C): 0 (0-24% inhibition)
Velvetleaf; Table II, 4 WAT, 5.6 kg/h
  Plant Response Index (C): 0 (0-24% inhibition)
Velvetleaf; [3]
  Plant Response Index (C): 0 (0-24% inhibition)
Velvetleaf; Table II, 4 WAT, 11.2 kg/h
  Plant Response Index (C): 1 (25-49% inhibition)
Velvetleaf; [4]
  Plant Response Index (C): 1 (25-49% inhibition)
Velvetleaf; Table III, 2 WAT, 1.1 kg/h
  Plant Response Index (C): 1 (25-49% inhibition)
Velvetleaf; [5]
  Plant Response Index (C): 1 (25-49% inhibition)
Velvetleaf; Table III, 2 WAT, 5.6 kg/h
  Plant Response Index (C): 2 (50-74% inhibition)
Velvetleaf; [6]
  Plant Response Index (C): 2 (50-74% inhibition)
Velvetleaf; Table III, 2 WAT, .28 kg/h
  Plant Response Index (C): 0 (0-24% inhibition)
Velvetleaf; [7]
  Plant Response Index (C): 0 (0-24% inhibition)
Velvetleaf; Table III, 4 WAT, 1.1 kg/h
  Plant Response Index (C): 1 (25-49% inhibition)
Velvetleaf; [8]
  Plant Response Index (C): 1 (25-49% inhibition)
Velvetleaf; Table III, 4 WAT, 5.6 kg/h
  Plant Response Index (C): 2 (50-74% inhibition)
Velvetleaf; [9]
  Plant Response Index (C): 2 (50-74% inhibition)
Velvetleaf; [10]
  Plant Response Index (C): 0 (0-24% inhibition)
Wild Buckwheat; 2 WAT, 1.1 kg/h
  Plant Response Index (Q): 2 (50-74% inhibition)
Wild Buckwheat; [11]
  Plant Response Index (Q): 2 (50-74% inhibition)
Wild Buckwheat; 2 WAT, 5.6 kg/h
  Plant Response Index (Q): 2 (50-74% inhibition)
Wild Buckwheat; [12]
  Plant Response Index (Q): 2 (50-74% inhibition)
Wild Buckwheat; 2 WAT, .28 kg/h
  Plant Response Index (Q): 1 (25-49% inhibition)
Wild Buckwheat; [13]
  Plant Response Index (Q): 1 (25-49% inhibition)
Wild Buckwheat; 4 WAT, 1.1 kg/h
  Plant Response Index (Q): 1 (25-49% inhibition)
Wild Buckwheat; [14]
  Plant Response Index (Q): 2 (50-74% inhibition)
Wild Buckwheat; 4 WAT, 5.6 kg/h
  Plant Response Index (Q): 3 (75-99% inhibition)
Wild Buckwheat; [15]
  Plant Response Index (Q): 2 (50-74% inhibition)
Wild Buckwheat; [16]
  Plant Response Index (Q): 1 (25-49% inhibition)
